What all share (test): NCI tumour cell line growth inhibition, 48 h
The subject of assay [1] is HCT-116.
Assay [2] relates to HOP-62.
The subject of assay [3] is TK-10.
In assay [4] the test system is A549.
Assay [5] deals with HCT-15.
In assay [6] the test system is OVCAR-5.
Assay [7] has as its system COLO 205.
The subject of assay [8] is EKVX.
Assay [9] has as its system MOLT-4.
The test system of assay [10] is NCI/ADR-RES.
The subject of assay [11] is M14.
Assay [12] deals with RXF 393.
In assay [13] the test system is SK-OV-3.
The subject of assay [14] is UACC-257.
Assay [15] concerns HOP-92.
For assay [16], the system named is Hs-578T.
The test system of assay [17] is IGROV-1.
Assay [18] relates to MCF7.
For assay [19], the system named is ACHN.
Assay [20] concerns K562.

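A five-concentration, 48-hour dose response in 96-well plates underlies each endpoint, interpolated linearly between surrounding concentrations. GI50 = concentration required for 50% inhibition of growth.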 Calls of active or inactive are those of the source. No stated cut-off is given here; in the data, active = GI50 up to about 1.1 µM and inactive = higher.

Regarding `Oc1c(Cl)c(Cl)c(Cl)c(Cl)c1Cl` [PENTACHLOROPHENOL], the GI50 in assay [1] is 17.4 µM (inactive); in [2], 25.4 µM (inactive); in [3] it was > 100 µM (inactive); in assay [4], 23.1 µM (inactive); in assay [5], 19.5 µM; in assay [6], 18.4 µM (inactive). Moreover, the GI50 is 31 µM (inactive) in [7]; 23.4 µM (inactive) in [8]; 20.6 µM (inactive) in assay [9]; 17.9 µM (inactive) in assay [10]; 20.9 µM (inactive) in [11]; 23.2 µM (inactive) in assay [12]. Moreover, the GI50 in assay [13] is 45.6 µM (inactive); in [14], > 100 µM (inactive); in assay [15], 18.6 µM (inactive); in assay [16], 35.2 µM (inactive); in [17] it was 18.8 µM (inactive); in [18], 24.9 µM (inactive). For the same compound, the GI50 is 18.9 µM (inactive) in [19] and 26.4 µM (inactive) in assay [20].

Take `CC1=CC(=O)/C(=C/N2CCNC2=S)C(=O)O1`: the GI50 in assay [1] is > 100 µM (inactive); in [2], > 100 µM (inactive); in [3], > 100 µM (inactive); in [4], > 100 µM (inactive); in [5], greater than 100 µM; in [6], > 100 µM (inactive). The GI50 in [7], in [8], in assay [9], in assay [10], in assay [11] and in [12] was > 100 µM (inactive) each time. Further, the GI50 in assay [13], in assay [14], in assay [15], in assay [16], in assay [17] and in [18] was > 100 µM (inactive) each time. Besides, the GI50 in assay [19] and in assay [20] was > 100 µM (inactive) throughout.

As for `C#CCN(Cc1ccc2nc(OC)c(OC)nc2c1)c1cc(OC)c(OC)c(OC)c1`, the GI50 was 16.7 µM (inactive) in assay [1]; 22.9 µM (inactive) in assay [2]; 35.5 µM (inactive) in [3]; 18.4 µM (inactive) in [4]; 22.9 µM in [5]; 40.2 µM (inactive) in [6]. For the same compound, the GI50 in assay [7] was 17.4 µM (inactive); in [8], 14.8 µM (inactive); in assay [9], 16.9 µM (inactive); in [10], 10.7 µM (inactive); in assay [11], 22.1 µM (inactive); in assay [12], 14.9 µM (inactive). The GI50 was 24.5 µM (inactive) in assay [13]; 12.3 µM (inactive) in assay [14]; 7.43 µM (inactive) in assay [15]; 21.2 µM (inactive) in assay [16]; 19.1 µM (inactive) in assay [17]; 11.9 µM (inactive) in assay [18]. The GI50 in [19] was 21 µM (inactive); in [20], 3.98 µM (inactive).

The values above are taken from ChEMBL document CHEMBL1201862, “PubChem BioAssay data set” (2004).
